Assay results as given in US20090176839A1, “FORMULATIONS OF 3-(6-(1-(2,2-DIFLUOROBENZO[D][1,3]DIOXOL-5-YL) CYCLOPROPANECARBOXAMIDO)-3-METHYLPYRIDIN-2-YL)BENZOIC ACID” (priority 2007, published 2009).
“And” between values parts separate entries of the source, which are not always exact repeats. Identical values can stand only once.

Legend:
[1] = Oral pharmacokinetics of Compound 1 and HCl salt in suspension in male dogs at 200 mg/kg
Solubility (statement) = type: physicochemical; conditions: water
[2] = Single oral pharmacokinetics of the HCl salt in suspension in male dogs; type: in vivo, male beagle dogs; conditions: for AUC0-INF / Cmax: mean (SD)
Procedure: (§1) Non-validated research grade assays were used for these analyses. All pharmacokinetic studies were conducted using fed animals unless otherwise specified.
At nominal dose levels of 5 to 200 mg/kg in 0.5% polysorbate 80/0.5% methylcellulose/water, exposure was high and relatively dose proportional to 200 mg/kg (Table 5). […] Bioavailability ranged from 24% to 49% at all dose levels studied and in both suspension formulations.

[3] = Single oral pharmacokinetics of the HCl salt in suspension in fed and fasted male rats; type: in vivo, male Sprague Dawley rats; conditions: 30 mg/kg; for AUC0-INF: HCl salt suspension; for Clast / F / Tmax / t1/2 / tlast: HCl salt
Procedure: as §1
The tmax following oral administration of the HCl salt was 3.7 hours under fed and 3.3 hours under fasted conditions, which was similar to the tmax of 3.0 to 4.7 hours following oral administration of Compound 1 under fed conditions.

[4] = Stability of 6 mg/mL aqueous methylcellulose-polysorbate 80 suspension (HPLC, XRPD, NMR); type: physicochemical; conditions: 0.5% methylcellulose/0.5% polysorbate 80; HCl salt quickly converted to Compound 1 at T(0)
Procedure: Methylcellulose (0.5 g) was combined with 99.0 g of purified water in a beaker and stirred in a 60-70° C. water bath for 30′-1 hr. The solution was stirred in a 0° C. ice/water bath for another 30′ or until clear. Polysorbate 80 (0.5 g) was added and stirring at room temperature followed for 30′-1 hr or until a clear solution was obtained.
The desired amount of 0.5% methylcellulose and 0.5% polysorbate 80 stock solution for making a 6 mg/mL based on free base (6.48 mg/mL based on HCl salt) was transferred into the vial and sonicated for 20 minutes with alternate stirring for 1-2 minutes. The solution was homogenized for approximately 1-2 minutes.
As with 0.5% methylcellulose formulation prepared previously, the HCl salt was quickly converted to Compound 1 in Form I at T(0) resulting in a crystalline free form suspension as shown by XRPD (FIG. 10) and confirmed by ^1H NMR analysis (FIGS. 11-13). Additionally, the solid form in suspension at T(0) was recovered an subjected to HPLC analysis: […]

[5] = 0.5% polysorbate 80/0.5% MC/Water, 5 mg/kg
[6] = 0.5% polysorbate 80/0.5% MC/Water, 25 mg/kg
[7] = 0.5% polysorbate 80/0.5% MC/Water, 50 mg/kg
[8] = 0.5% polysorbate 80/0.5% MC/Water, 100 mg/kg
[9] = 0.5% polysorbate 80/0.5% MC/Water, 200 mg/kg

SMILES: Cc1ccc(NC(=O)C2(c3ccc4c(c3)OC(F)(F)O4)CC2)nc1-c1cccc(C(=O)O)c1.Cl [HCl salt, 3-(6-(1-(2,2-difluorobenzo[d][1,3]dioxol-5-yl)cyclopropanecarboxamido)-3-methylpyridin-2-yl)benzoic acid.HCl]
- Clast ([1]; HCl salt): 128 ng/mL
- F ([1]; HCl salt): 53%
- Tmax ([1]; HCl salt): 2.5 h
- t1/2 ([1]; HCl salt): 5.5 h
- tlast ([1]; HCl salt): 48 h
- AUC0-INF ([1]; HCl salt suspension): 755 µg·h/mL
- solubility in water (Solubility (statement)): sparingly soluble
- F ([2]; 0.5% MC/Water, 1 mg/kg): 35%
- T1/2 ([2]; 0.5% MC/Water, 1 mg/kg): 6.0 h
- Tmax ([2]; 0.5% MC/Water, 1 mg/kg): 0.83 h
- AUC0-INF ([2]; 0.5% MC/Water, 1 mg/kg): 2.2 (0.5) hr · μg/mL
- Cmax ([2]; 0.5% MC/Water, 1 mg/kg): 0.37 (0.2) μg/mL
- F ([2]; 0.5% MC/Water, 3 mg/kg): 49%
- T1/2 ([2]; 0.5% MC/Water, 3 mg/kg): 5.3 h
- Tmax ([2]; 0.5% MC/Water, 3 mg/kg): 1.7 h
- AUC0-INF ([2]; 0.5% MC/Water, 3 mg/kg): 9.3 (4.8) hr · μg/mL
- Cmax ([2]; 0.5% MC/Water, 3 mg/kg): 1.1 (0.5) μg/mL
- F ([2]; 0.5% MC/Water, 10 mg/kg): 40%
- T1/2 ([2]; 0.5% MC/Water, 10 mg/kg): 8.8 h
- Tmax ([2]; 0.5% MC/Water, 10 mg/kg): 1.0 h
- AUC0-INF ([2]; 0.5% MC/Water, 10 mg/kg): 28.4 (12.8) hr · μg/mL
- Cmax ([2]; 0.5% MC/Water, 10 mg/kg): 8.9 (7.2) μg/mL
- F [2, 5]: 24%
- T1/2 [2, 5]: 7.0 h
- Tmax [2, 5]: 1.0 h
- AUC0-INF [2, 5]: 11.0 (3.6) hr · μg/mL
- Cmax [2, 5]: 3.0 (0.5) μg/mL
- F [2, 6]: 41%
- T1/2 [2, 6]: 5.9 h
- Tmax [2, 6]: 2.0 h
- AUC0-INF [2, 6]: 56.8 (22.1) hr · μg/mL
- Cmax [2, 6]: 18.0 (3.7) μg/mL
- F [2, 7]: 27%
- T1/2 [2, 7]: 4.9 h
- Tmax [2, 7]: 1.7 h
- AUC0-INF [2, 7]: 63.4 (22.9) hr · μg/mL
- Cmax [2, 7]: 21.0 (7.1) μg/mL
- F [2, 8]: 46%
- T1/2 [2, 8]: 5.4 h
- Tmax [2, 8]: 1.7 h
- AUC0-INF [2, 8]: 268 (123) hr · μg/mL
- Cmax [2, 8]: 54.4 (6.8) μg/mL
- F [2, 9]: 30%
- T1/2 [2, 9]: 5.9 h
- Tmax [2, 9]: 2.3 h
- AUC0-INF [2, 9]: 523 (46.8) hr · μg/mL
- Cmax [2, 9]: 101 (30.2) μg/mL
- AUC0-INF ([3]; Fasted): 383 µg·h/mL
- AUC0-INF ([3]; Fed): 340 µg·h/mL
- Clast ([3]; Fasted): 60 ng/mL
- F ([3]; Fasted): >100%
- Tmax ([3]; Fasted): 3.3 h and 3.33 h
- t1/2 ([3]; Fasted): 5.36 h
- tlast ([3]; Fasted): 48 h
- Clast ([3]; Fed): 240 ng/mL
- F ([3]; Fed): >100%
- Tmax ([3]; Fed): 3.7 h and 3.67 h
- t1/2 ([3]; Fed): 6.07 h
- tlast ([3]; Fed): 48 h
- physical stability of suspension [4]: not physically stable
